# PubChem BioAssay (NCI)
# Values joined by “and” are separate entries in the source; they are usually repeats but may differ in a detail not shown here. Equal entries are not always repeated.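 All cell lines were grown in 96-well plates and treated with compound for 48 hours. At the GI50, growth is halved. Definition used: TGI = concentration required for complete inhibition of growth.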
# Experiments:
# Assay in all cases: NCI anticancer screen, dose series, 48 h
# 786-0 renal = system: 786-0 renal
# CAKI-1 renal = system: CAKI-1 renal
# K-562 leukemia = system: K-562 leukemia
# MCF7 breast = system: MCF7 breast
# RPMI-8226 leukemia = system: RPMI-8226 leukemia
# SK-MEL-2 melanoma = system: SK-MEL-2 melanoma
# SK-OV-3 ovarian = system: SK-OV-3 ovarian
# T-47D breast = system: T-47D breast
# UO-31 renal = system: UO-31 renal
SMILES,GI50 (786-0 renal),TGI (786-0 renal),GI50 (CAKI-1 renal),TGI (CAKI-1 renal),GI50 (K-562 leukemia),TGI (K-562 leukemia),GI50 (MCF7 breast),TGI (MCF7 breast),GI50 (RPMI-8226 leukemia),TGI (RPMI-8226 leukemia),GI50 (SK-MEL-2 melanoma),TGI (SK-MEL-2 melanoma),GI50 (SK-OV-3 ovarian),TGI (SK-OV-3 ovarian),GI50 (T-47D breast),TGI (T-47D breast),GI50 (UO-31 renal),TGI (UO-31 renal)
COc1ccc2[nH]c(=O)c3c4ccccc4cn3c2c1,0.553 µM,1.95 µM,0.169 µM,0.839 µM,0.276 µM,1.33 µM,0.153 µM,0.969 µM,0.358 µM,2.03 µM,1.35 µM,7.66 µM,0.451 µM,11.5 µM,0.756 µM,3.84 µM,0.689 µM,4.73 µM
CCOC(=O)c1ccc2[nH]c(-c3ccc(S(=O)(=O)F)cc3)cc(=O)c2c1,–,> 100 µM,–,> 100 µM,–,> 100 µM,–,> 100 µM,–,> 100 µM,–,> 100 µM,–,> 100 µM,–,> 100 µM,–,> 100 µM
Cn1cc(-c2ccc3c(Nc4cccc(NC(=O)Nc5cccc(F)c5)c4)ncnc3c2)cn1,1.87 µM,4.46 µM,0.559 µM,14.9 µM,2.14 µM,> 100 µM,1.14 µM,5.07 µM,1.53 µM,4.65 µM,4.43 µM,17.8 µM,0.61 µM,13.1 µM,1.62 µM,28.7 µM,2.09 µM,13.7 µM
CCSCC1CC(O)(c2ccccc2)C(c2ccccc2)C(c2ccc(Cl)cc2)O1 (stereo not given),1.64 µM,3.26 µM,1.49 µM,4.06 µM,1.89 µM,8.37 µM,1.85 µM,5.35 µM,1.56 µM,4.66 µM,1.73 µM,3.5 µM,2.5 µM,7.33 µM,1.42 µM,4.57 µM,1.07 µM,2.43 µM
COC(=O)[C@@]12C(=O)C=CC(=O)[C@@H]1C1C(=CC2COC(C)=O)O[C@@H]2OC3(CCCCC3)O[C@H]12 (stereo not given in full),–,18.7 µM,–,25.4 µM,–,43.8 µM,–,32.3 µM,–,22.7 µM,–,37.3 µM,–,30 µM,–,13.2 µM,–,28.3 µM
Cc1ccc([N+](=O)[O-])cc1NC(=O)Nc1cccc(F)c1,14.1 µM,> 100 µM,3.35 µM,> 100 µM,2.63 µM,71.4 µM,3.63 µM,> 100 µM,2.82 µM,20.7 µM,8.82 µM,89.2 µM,13.1 µM,49.4 µM,3.45 µM,> 100 µM,3.36 µM,17.6 µM
CN(C)CCOc1ccc(-c2nc(-c3ccc4c(c3)CC/C4=N\O)c(-c3ccncc3)[nH]2)cc1,5.02 µM and 2.22 µM,9.83 µM and 4.17 µM,5.18 µM and 16.9 µM,19.5 µM and 44.8 µM,4.74 µM and 1.95 µM,10.5 µM and 4.2 µM,4.52 µM and 3.55 µM,9.03 µM and 16.1 µM,5.75 µM and 16.8 µM,13.7 µM and 77 µM,0.108 µM and 0.367 µM,–,3.67 µM and 9.66 µM,7.52 µM and 22.1 µM,4.8 µM and 7.63 µM,9.55 µM and 30.6 µM,5.61 µM and 18.8 µM,10 µM and 45.6 µM
CC(C)[C@]12O[C@H]1[C@@H]1O[C@]13[C@]1(O[C@H]1C[C@H]1C4=C(CC[C@@]13C)C(=O)OC4)[C@@H]2O,0.0303 µM,> 100 µM,0.0111 µM and < 0.01 µM,> 100 µM,0.0151 µM,> 100 µM,< 0.01 µM,–,0.0036 µM and 0.011 µM,0.0265 µM and 0.0915 µM,0.0157 µM,0.0195 µM and 0.0323 µM,–,> 100 µM,0.0211 µM and 0.0292 µM,–,0.0183 µM,> 100 µM
NC(=O)NNCc1ccccc1,–,> 100 µM,–,> 100 µM,–,> 100 µM,–,> 100 µM,–,> 100 µM,–,> 100 µM,–,> 100 µM,–,> 100 µM,–,> 100 µM
CCNC(=O)[C@@H]1CCCN2C(=O)CC[C@H](NC(=O)[C@H](Cc3ccc(OP(=O)(O)O)cc3)NC(C)=O)C(=O)N12,> 25 µM,> 25 µM,> 25 µM,> 25 µM,> 25 µM,> 25 µM,> 25 µM,> 25 µM,> 25 µM,> 25 µM,> 25 µM,> 25 µM,> 25 µM,> 25 µM,> 25 µM,> 25 µM,> 25 µM,> 25 µM
COc1ccc(C(=O)c2cc(OC)c(OC)c(OC)c2)cc1,–,> 79.2 µM,–,> 88.1 µM,–,> 100 µM,–,> 100 µM,–,76.3 µM,–,> 100 µM,–,> 13.7 µM,–,66.7 µM,–,61.9 µM
O=C(Nc1ccc(Cl)c(Cl)c1)c1cccc(NC2=C(Cl)C(=O)N(Cc3ccccc3)C2=O)c1,48.4 µM,> 100 µM,53.9 µM,> 100 µM,11.5 µM,> 100 µM,22.5 µM,96.1 µM,14.4 µM,44.7 µM,23.5 µM,56.5 µM,> 100 µM,> 100 µM,61.2 µM,> 100 µM,34.6 µM,> 100 µM
O=C[C@@H](CO)O[C@H](C=O)c1c[nH]c(=O)[nH]c1=O,–,1310 µM,–,250 µM,–,818 µM,–,428 µM,–,672 µM,–,3680 µM,–,473 µM,–,606 µM,–,287 µM
O=C(O)C/C(=C\c1ccco1)C(=O)O,–,> 100 µM,–,> 100 µM,–,> 100 µM,–,> 100 µM,–,> 100 µM,–,> 100 µM,–,> 100 µM,–,> 100 µM,–,> 100 µM
CC[C@]12CCCN3CCc4c(n(c5ccccc45)C(=O)C1)[C@@H]32,–,> 56.2 µM,–,> 100 µM,–,> 100 µM,–,> 100 µM,–,> 65.1 µM,–,> 100 µM,–,87.7 µM,–,> 100 µM,–,> 100 µM
COc1ccc(C2CC(c3cc(OC)c(OC)c(OC)c3)=NO2)cc1OCCCCOc1cc2c(cc1OC)C(=O)N1CCC[C@H]1C=N2 (stereo not given in full),1.57 µM,2.99 µM,3.09 µM,> 100 µM,1.26 µM,6.74 µM,1.75 µM,12.3 µM,1.43 µM,4.31 µM,2.03 µM,4.8 µM,3.37 µM,9.46 µM,1.31 µM,4.11 µM,2.09 µM,6.26 µM
COc1cccc(C2c3cc4c(cc3OC(C)(N3CCCC3)C2C)OCO4)c1OC (stereo not given),–,> 100 µM,–,47.4 µM,–,53.1 µM,–,98.6 µM,–,> 100 µM,–,27 µM,–,69.6 µM,–,46.6 µM,–,37.5 µM
